# Patent US10517889B2, “Modulators of SMAD7 expression” (Ionis Pharmaceuticals, Inc., priority 2017, dated 2019)
# Strand notation (5' to 3'): a small letter for the sugar, then the base; units joined by * are phosphorothioate-linked, units joined directly phosphodiester-linked; [ ] holds rarer units or linkages, { } end groups; capitals alone tell only the bases. k = constrained ethyl (cEt); [5mC] = 5-methylcytosine; d = 2'-deoxy (DNA)
# System: human SMAD7 mRNA
# Assay: Antisense inhibition of human SMAD7 mRNA expression in Hep3B cells by 3-10-3 cEt gapmers, 10,000 nM, electroporation (Example 2)
# Format: cell-based
# Details: Hep3B cells, 10,000 nM antisense oligonucleotide, electroporation, approximately 24 hours, RT-PCR primer probe set RTS5062, relative to untreated control cells
# Method in brief: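 Percent inhibition of SMAD7 mRNA, relative to untreated cells, after ~24 h exposure of electroporated Hep3B cells to 10,000 nM cEt gapmer; levels by qRT-PCR, corrected for total RNA.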
row,Substance,% Inhibition
1,799995 (k[5mC]*kT*kG*dT*dG*dA*dG*dG*d[5mC]*dA*d[5mC]*dT*dT*kG*kG*kA; antisense) [compound 799995],63%
2,799996 (kG*kA*k[5mC]*d[5mC]*d[5mC]*dA*d[5mC]*dG*dG*dT*dT*dA*dA*kA*kT*kG; antisense) [compound 799996],36%
3,799997 (kA*kT*kG*dA*d[5mC]*d[5mC]*d[5mC]*dA*d[5mC]*dG*dG*dT*dT*kA*kA*kA; antisense) [compound 799997],14%
4,799998 (k[5mC]*kA*kG*dT*dA*dA*dA*dG*dA*d[5mC]*dA*dT*dG*kA*kG*k[5mC]; antisense) [compound 799998],45%
5,799999 (kT*kT*kA*dG*dG*dA*dA*d[5mC]*dA*dA*dG*dG*dG*k[5mC]*kA*kA; antisense) [compound 799999],23%
6,800011 (k[5mC]*kT*kT*d[5mC]*dA*dG*d[5mC]*d[5mC]*dT*dG*dT*dG*dT*kT*kT*kG; antisense) [compound 800011],21%
7,800012 (kG*kA*kG*dG*dA*d[5mC]*dT*dT*d[5mC]*dA*dG*d[5mC]*d[5mC]*kT*kG*kT; antisense) [compound 800012],49%
8,800013 (kA*kA*kA*dG*dG*dA*dG*dA*dG*dG*dA*d[5mC]*dT*kT*k[5mC]*kA; antisense) [compound 800013],56%
9,800014 (kT*kA*kA*dA*dG*d[5mC]*dA*dT*dA*dA*dA*dA*dT*k[5mC]*k[5mC]*kT; antisense) [compound 800014],21%
10,800015 (k[5mC]*kT*kT*dT*dA*dA*dG*dG*dT*dG*dT*dT*dG*k[5mC]*k[5mC]*k[5mC]; antisense) [compound 800015],26%
11,800016 (kG*kT*kT*d[5mC]*dA*dT*dT*dT*dT*dA*dA*dA*dG*k[5mC]*kA*kT; antisense) [compound 800016],32%
12,800017 (kT*kA*kA*dA*dA*d[5mC]*dA*dG*dT*dA*dT*dG*dT*kG*kT*kT; antisense) [compound 800017],11%
13,800018 (kA*kA*kA*dA*d[5mC]*dT*d[5mC]*dA*d[5mC]*dA*dG*dT*d[5mC]*k[5mC]*kT*kT; antisense) [compound 800018],51%
14,800029 (k[5mC]*k[5mC]*kT*dG*dA*dA*dT*d[5mC]*dG*dG*dG*d[5mC]*d[5mC]*k[5mC]*kA*k[5mC]; antisense) [compound 800029],0%
15,800030 (kA*kA*kA*d[5mC]*dA*d[5mC]*dA*dG*dT*dT*d[5mC]*d[5mC]*d[5mC]*kT*kG*kA; antisense) [compound 800030],0%
16,800032 (kG*kA*kA*dT*dT*d[5mC]*d[5mC]*d[5mC]*d[5mC]*dG*d[5mC]*d[5mC]*dA*kT*kT*kT; antisense) [compound 800032],0%
17,800033 (k[5mC]*kA*k[5mC]*dT*dA*d[5mC]*dA*dG*dA*dG*dA*dT*dT*k[5mC]*k[5mC]*k[5mC]; antisense) [compound 800033],52%
18,800034 (k[5mC]*k[5mC]*kG*d[5mC]*dA*d[5mC]*dG*dA*d[5mC]*dA*dT*d[5mC]*d[5mC]*k[5mC]*k[5mC]*k[5mC]; antisense) [compound 800034],47%
19,800035 (k[5mC]*kA*kA*dA*dG*dG*d[5mC]*d[5mC]*d[5mC]*d[5mC]*dT*d[5mC]*dG*kA*kA*k[5mC]; antisense) [compound 800035],34%
20,800036 (kG*kT*kT*dA*dG*dG*dA*d[5mC]*dA*dG*d[5mC]*dT*d[5mC]*k[5mC]*kA*kG; antisense) [compound 800036],38%
21,800037 (k[5mC]*kA*k[5mC]*d[5mC]*dA*dG*d[5mC]*dA*dG*d[5mC]*d[5mC]*dT*d[5mC]*kT*kG*kT; antisense) [compound 800037],0%

# Same assay, conditions: Hep3B cells, electroporation with 10,000 nM antisense oligonucleotide, approximately 24 hours, SMAD7 mRNA by RT-PCR (RTS5062), relative to untreated control cells
row,Substance,% Inhibition
1,800000 (k[5mC]*kA*kT*dT*dT*dA*dG*dG*dA*dA*d[5mC]*dA*dA*kG*kG*kG; antisense) [compound 800000],37%
2,800001 (k[5mC]*kA*kA*dG*dA*dT*dT*d[5mC]*d[5mC]*dA*dT*dT*dT*kA*kG*kG; antisense) [compound 800001],2%
3,800002 (k[5mC]*k[5mC]*k[5mC]*d[5mC]*dA*dA*dG*dA*dT*dT*d[5mC]*d[5mC]*dA*kT*kT*kT; antisense) [compound 800002],0%
4,800003 (kA*kG*kA*dA*d[5mC]*dA*d[5mC]*dG*dG*dG*d[5mC]*dA*d[5mC]*kG*k[5mC]*kG; antisense) [compound 800003],24%
5,800004 (kT*kT*kT*dT*dA*dA*dT*dT*dT*dG*dA*dA*dG*kG*k[5mC]*kG; antisense) [compound 800004],8%
6,800005 (k[5mC]*k[5mC]*kG*d[5mC]*dA*d[5mC]*d[5mC]*d[5mC]*dA*dG*dA*d[5mC]*d[5mC]*k[5mC]*k[5mC]*kT; antisense) [compound 800005],27%
7,800006 (k[5mC]*kA*kA*dG*dG*dA*dA*dT*dT*dT*dT*d[5mC]*d[5mC]*k[5mC]*k[5mC]*kT; antisense) [compound 800006],41%
8,800007 (k[5mC]*kT*k[5mC]*dA*dA*dG*dG*d[5mC]*d[5mC]*dA*d[5mC]*dA*dT*kT*kT*kT; antisense) [compound 800007],23%
9,800008 (kG*kA*kA*d[5mC]*dA*dG*dA*d[5mC]*d[5mC]*dA*dG*dA*d[5mC]*k[5mC]*k[5mC]*kT; antisense) [compound 800008],40%
10,800009 (kT*kG*k[5mC]*dT*d[5mC]*dA*dT*dG*dA*dA*dT*dG*dA*kA*k[5mC]*kA; antisense) [compound 800009],51%
11,800019 (kG*kG*k[5mC]*dA*dA*dA*dA*d[5mC]*dT*d[5mC]*dA*d[5mC]*dA*kG*kT*k[5mC]; antisense) [compound 800019],61%
12,800020 (kA*kA*k[5mC]*d[5mC]*dT*d[5mC]*dT*dG*dA*dA*dG*dG*d[5mC]*kA*kA*kA; antisense) [compound 800020],21%
13,800021 (kG*kG*k[5mC]*d[5mC]*dT*d[5mC]*dT*d[5mC]*dG*d[5mC]*dT*dG*dA*kT*kA*kG; antisense) [compound 800021],0%
14,800022 (kG*kG*kA*dA*dG*dA*dG*d[5mC]*d[5mC]*dT*dT*dG*dG*k[5mC]*k[5mC]*kT; antisense) [compound 800022],30%
15,800023 (kA*kG*kG*dA*dA*dG*dA*dG*d[5mC]*d[5mC]*dT*dT*dG*kG*k[5mC]*k[5mC]; antisense) [compound 800023],0%
16,800024 (k[5mC]*kA*kA*dG*dG*dA*d[5mC]*dT*dA*dA*dG*dG*dA*kA*kG*kA; antisense) [compound 800024],18%
17,800026 (kT*k[5mC]*kA*dG*dT*dA*d[5mC]*dA*dA*dG*dG*dA*d[5mC]*kT*kA*kA; antisense) [compound 800026],50%
18,800027 (k[5mC]*kG*k[5mC]*dT*dT*dT*dG*d[5mC]*dT*d[5mC]*d[5mC]*d[5mC]*dA*kG*kG*kG; antisense) [compound 800027],0%
19,800028 (k[5mC]*kA*k[5mC]*dA*dG*d[5mC]*d[5mC]*d[5mC]*dA*d[5mC]*dA*d[5mC]*dG*kA*kG*kT; antisense) [compound 800028],10%
